Source: the supplement of paper PMC10331698
± gives the standard deviation of the averaged measurements.

Key:
Experiment in all cases: level (log10 ratio to DMSO vehicle control); higher = higher biomarker level / cell amount than vehicle control
[1] = compound: C=C(C)C(=O)OCCC(F)(F)C(F)(F)C(F)(F)C(F)(F)C(F)(F)C(F)(F)F [6:2 Fluorotelomer methacrylate]; conditions: in DMSO
Experimental: (§1)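 BioMAP Diversity Plus panel of 12 human primary cell co-culture systems (3C, 4H, LPS, SAg, BT, BF4T, BE3C, CASM3C, HDF3CGF, KF3CT, MyoF, Mphg). Compounds were added 1 h before stimulation and left for 24 h (MyoF 48 h; BT 72 h for soluble read-outs or 6 d for IgG). Biomarkers were read by ELISA, cytotoxicity by SRB, PBMC viability and proliferation by Alamar Blue. Each well value was divided by the mean of 8 DMSO control wells on the same plate and log10 transformed; duplicate blinded samples were tested at 4 concentrations.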

[2] = compound: C=CC(=O)OCC(F)(F)C(F)(F)C(F)(F)COC(=O)C=C [1H,1H,5H,5H-Perfluoro-1,5-pentanediol diacrylate]; conditions: 6700 nM; in DMSO
Experimental: as §1

[3] = compound: COC(=O)C(F)(F)C(F)(F)OC(F)(C(F)(F)F)C(F)(F)OC(F)=C(F)F [Methyl perfluoro(3-(1-ethenyloxypropan-2-yloxy)propanoate)]; conditions: in DMSO
Experimental: as §1

[4] = compound: FC(F)(F)C(F)(F)C(F)(F)CC1CO1 [1H,1H-Heptafluorobutyl epoxide]; conditions: in DMSO
Experimental: as §1

[5] = compound: NC(=O)C(F)(F)C(F)(F)C(F)(F)C(F)F; conditions: in DMSO
Experimental: as §1

[6] = compound: NS(=O)(=O)C(F)(F)C(F)(F)C(F)(F)C(F)(F)C(F)(F)C(F)(F)F [Perfluorohexanesulfonamide]; conditions: in DMSO
Experimental: as §1

Test System	level (log10) ([1]; 6700 nM)	level (log10) ([1]; 20000 nM)	level (log10) ([1]; 60000 nM)	level (log10) [2]	level (log10) ([3]; 6700 nM)	level (log10) ([3]; 20000 nM)	level (log10) ([4]; 6700 nM)	level (log10) ([4]; 20000 nM)	level (log10) ([4]; 60000 nM)	level (log10) ([5]; 6700 nM)	level (log10) ([5]; 20000 nM)	level (log10) ([5]; 60000 nM)	level (log10) ([6]; 6700 nM)	level (log10) ([6]; 20000 nM)	level (log10) ([6]; 60000 nM)
HDF3CGF:EGFR	0.004 ± 0.0071	0.0275 ± 0.028	0.0155 ± 0.0092	-0.016 ± 0.025	0.0505 ± 0.054	-0.005 ± 0.12	-0.004 ± 0.014	-0.004 ± 0.0028	0.023 ± 0.047	0.001 ± 0.033	0.0025 ± 0.046	0.0125 ± 0.043	0.0525 ± 0.0064	0.043 ± 0.024	-0.103 ± 0.059
MyoF:CD106/VCAM-1	-0.005 ± 0.037	-0.0005 ± 0.036	-0.003 ± 0.0042	-0.212 ± 0.015	-0.03 ± 0.0014	-0.0365 ± 0.019	-0.007 ± 0.013	-0.007 ± 0.038	-0.0205 ± 0.03	-0.0085 ± 0.013	-0.0205 ± 0.013	-0.0235 ± 0.013	-0.0105 ± 0.021	-0.0165 ± 0.0021	-0.0655 ± 0.0078
3C:CD87/uPAR	0.003 ± 0.035	0.004 ± 0.034	0.0195 ± 0.039	0.014 ± 0.034	0.01 ± 0.041	0.031 ± 0.013	-0.0185 ± 0.026	0 ± 0.021	-0.01 ± 0.0071	-0.0235 ± 0.036	-0.022 ± 0.03	-0.023 ± 0.027	-0.0335 ± 0.0035	-0.0565 ± 0.036	-0.137 ± 0.035
HDF3CGF:TIMP-1	-0.049 ± 0.028	-0.0115 ± 0.0078	-0.0055 ± 0.0035	-0.245 ± 0.011	0.0565 ± 0.011	0.117 ± 0.021	-0.0015 ± 0.067	0.015 ± 0.068	-0.0025 ± 0.071	-0.0005 ± 0.0064	-0.0095 ± 0.043	0.0045 ± 0.039	0.0235 ± 0.0078	0.048 ± 0.021	0.05 ± 0.017
CASM3C:CXCL9/MIG	0.011 ± 0.016	0.0255 ± 0.012	0.041 ± 0.0099	-0.229 ± 0.011	-0.0025 ± 0.0078	-0.007 ± 0.013	-0.01 ± 0.011	-0.0145 ± 0.023	0.004 ± 0.013	-0.0075 ± 0.021	-0.0055 ± 0.0035	0.0005 ± 0.0078	0.003 ± 0.0042	-0.0065 ± 0.005	-0.003 ± 0.023
HDF3CGF:Proliferation 72hr	-0.0385 ± 0.035	-0.0525 ± 0.015	-0.0545 ± 0.0021	-0.689 ± 0.0099	0.076 ± 0.018	-0.163 ± 0.079	-0.0905 ± 0.044	-0.0925 ± 0.047	-0.0225 ± 0.13	-0.0005 ± 0.046	-0.0245 ± 0.06	-0.0205 ± 0.037	0.058 ± 0.03	0.0595 ± 0.0078	-0.267 ± 0.028
KF3CT:CXCL9/MIG	0.012 ± 0.0042	0.01 ± 0.0028	0.01 ± 0.02	-0.0275 ± 0.013	-0.013 ± 0.013	-0.0105 ± 0.025	-0.0095 ± 0.00071	-0.002 ± 0.025	-0.0085 ± 0.012	0.019 ± 0.018	0.006 ± 0.02	0.0145 ± 0.0078	0.0005 ± 0.0035	-0.0075 ± 0.016	-0.008 ± 0.0057
KF3CT:CXCL8/IL-8	-0.004 ± 0.0057	0.0085 ± 0.011	-0.007 ± 0.011	-0.041 ± 0.027	0.001 ± 0.025	0.034 ± 0.014	-0.021 ± 0.027	-0.0135 ± 0.03	0.0015 ± 0.0035	-0.009 ± 0.0028	0.011 ± 0.011	0.019 ± 0.011	-0.039 ± 0.023	-0.0345 ± 0.0092	-0.0395 ± 0.03
